Experimental findings from article PMC4745926, “Absorption, Metabolism, and Excretion by Freely Moving Rats of 3,4-DHPEA-EDA and Related Polyphenols from Olive Fruits (Olea europaea)” (Journal of Nutrition and Metabolism, 2016) are described below.

Structures are written as SMILES. Where “and” joins values, the source holds several entries; their conditions need not be identical. Identical values can stand only once.

This series is described as follows: Biliary excretion after intravenous administration in bile duct-cannulated rats. Type of series: in vivo, Wistar ST rats. As to the method: SPF Wistar ST rats (6 weeks of age, male, 180 ± 20 g of body weight) were purchased from Japan SLC Inc. (Hamamatsu, Japan). The rats were housed in an air-conditioned room at 22 ± 2°C under cycles of 12 hours dark and 12 hours light and given free access to a commercial diet and water for a week. The rats were then fasted for over 16 hours before the experiments. The present study was approved by the Animal Care and Use Committee at Kagawa University, and the rat treatment conformed to the Rules of Animal Experiments at Kagawa University. After fasting, the rats were cannulated with a polyethylene tube (PE-50; 0.58 mm I.D., 0.965 mm O.D.) into the jugular vein, portal vein, or bile duct under anesthesia with isoflurane inhalation using a WP-SAA01 (LMS Co., Ltd., Tokyo, Japan). A small hole was made in the vein or duct using pointed scissors and cannulated with the polyethylene tube. After inserting the tube, it was fixed at the edge of the vein or duct. The jugular vein and portal vein cannulas penetrated under the skin and were then tied at the back of the rats, and the bile duct cannula was tied at the abdomen of the rats. Bile duct-cannulated rats were then restrained in a Bollman cage (Natsume Seisakusho Co., Ltd., Tokyo, Japan). Before further experiments, the rats were allowed to recover from anesthesia. 3,4-[…] (300 mg/kg body weight; 936.51 μmol/kg) dissolved in 50% polyethylene glycol aqueous solution was administered orally via a stomach tube to the portal vein cannulated rats. Blood samples (450 μL) were then collected using a heparinized syringe attached to the cannula before administration and 5, 15, 30, 60, 120, and 240 min after administration. Urine was also collected before administration and 0 to 2 h and 2 to 4 h after administration. For intravenous administration, 3,4-[…] (10 mg/kg; 31.22 μmol/kg) was injected into the jugular vein, and blood (450 μL) was collected using a heparinized syringe before administration and 5, 15, 30, 60, 120, and 240 min after administration via the jugular vein cannula. The blood (450 μL) collected was immediately cooled on ice and centrifuged at 15,000 rpm for 5 min at 4°C to obtain over 200 μL plasma. Urine was also collected before administration and 0 to 2 h and 2 to 4 h after administration. Bile was collected via the bile duct cannula before administration and 0 to 2 h and 2 to 4 h after intravenous administration. The collected plasma, urine, and bile were immediately stored in an ice box until further analyses. HT (oral administration: 100 mg/kg; 648.66 μmol/kg, intravenous administration: 10 mg/kg; 64.87 μmol/kg) and Ole (oral administration: 300 mg/kg; 555.02 μmol/kg, intravenous administration: 10 mg/kg; 18.50 μmol/kg) were investigated using the same method as described above. Metabolites were deconjugated by using β-glucuronidase (500 U) and sulfatase (50 U) in 50 μL 625 mM MOPS (pH 6.8), which was added to 200 μL of plasma, urine, or bile. The mixture was incubated for 45 min at 37°C and subjected to extraction using QuEChERS [33]. […] Shimadzu, Kyoto, Japan) equipped with a Shim-pack XR-ODS column (3.0 mm I.D. × 100 mm; Shimadzu, Kyoto, Japan) at 40°C with a mobile phase of 0.5% TFA-1% acetonitrile aqueous solution (A) and 0.5% TFA-75% acetonitrile aqueous solution (B). The elution conditions are described as follows: isocratic elution of 0% B was maintained for 4.0 min; linear gradient 0 to 4% B, 4.0-4.5 min; linear gradient 4.0-16.0% B, 4.5-16.0 min; linear gradient 16.0-100% B, 16.0-25.0 min; isocratic elution of 100% B, 25.0-26.0 min; and linear gradient 100 to 0% B, 26.0-26.1 min, with a flow rate of 0.5 mL/min. Injection volume was 50 μL. All eluted peaks were detected at 279 nm with a diode array detector (SPD-M20A; Shimadzu, Kyoto, Japan).

As for `C/C=C1/[C@H](O[C@@H]2O[C@H](CO)[C@@H](O)[C@H](O)[C@H]2O)OC=C(C(=O)OC)[C@H]1CC(=O)OCCc1ccc(O)c(O)c1` [Oleuropein, reference compound], the Ole in bile is 3.22 % of dose.
Regarding `CC=C(C=O)C(CC=O)CC(=O)OCCc1ccc(O)c(O)c1` (stereo not drawn) [3,4-DHPEA-EDA, 3,4-dihydroxyphenylethyl elenolate dialdehydic form], the “Detection of parent 3,4-DHPEA-EDA in bile” value is reported as “not observed”; the HT in bile was 0.174 % of dose and 0.17 % of dose; the HVA in bile was 0.048 % of dose and 0.05 % of dose; the HVAOH in bile is 0.255 % of dose and 0.26 % of dose.
Consider `OCCc1ccc(O)c(O)c1` [Hydroxytyrosol, 2-(3,4-dihydroxyphenyl) ethyl alcohol, reference compound], for which the HT in bile is 0.079 % of dose.
